The source of these data is patent US20250032625A1, “HETEROBIFUNCTIONAL MOLECULES AS TEAD INHIBITORS” (Merck Patent GmbH, priority 2021, published 2025).

Assay [1] deals with TEAD1 in NCI-H226 cells (Homo sapiens (Human), UniProt P28347). Nature of the assay: TEAD degradation in NCI-H226 cell line (immunofluorescence). In kind it is cell-based. The protocol: (§1) Degradation of TEAD isoform TEAD1 by exemplary compounds which has been determined at different time points in two different cell lines, SK-HEP1 and NCI-H226: For the assay, SK-HEP1 (ATCC HTB-52) and NCI-H226 (ATCC CRL-5826) cells were treated in duplicates with the test compounds in a 10-point dose, 1:3 dilution steps, with the top concentration starting at 30 uM (final concentration in assay). After either 16 or 24 hour incubation at 37° C., 95% rH, and 5% CO2, the cells were fixed with 4% PFA and TEAD1 levels were probed using immunofluorescence. The primary antibody used was Anti-TEF1 (BD, 610293) and the secondary antibody used was Alexa Fluor® 488 Goat Anti-Mouse IgG (H+L) (Molecular Probes, A-11001). Finally, the cell nuclei were co-stained by Hoechst 33258 (Invitrogen, H-3569) and imaged using a high content imager. The amount of TEAD degradation was determined by quantifying the fluorescence intensity levels of Anti-TEF1 in each individual cell per well. DC50 was calculated using curve fitting software Genedata Screener. Cell media: The SK-HEP1 cells were cultured in the following media: MEM, +10% FCS, +1× GlutaMAX, +100 μM NEAA, +10 mM HEPES, +0.5% Pen/Strep. The NCI-H226 cells were cultured in the following media: RPMI 1640, +10% FBS, +1× GlutaMAX, +10 mM HEPES, +0.5% Pen/Strep.

Assay [2] deals with TEAD1 in SK-HEP1 cells (Homo sapiens (Human), UniProt P28347). Nature of the assay: TEAD degradation in SK-HEP1 cell line (immunofluorescence). In kind it is cell-based. The protocol: as §1
Where [3] appears, read: 24 hours, ranges, read-out: DC50 NCI-H226.
Setting [4] is: 24 hours, ranges, read-out: DC50 SK-HEP1.
The mark [5] stands for this setting: 24 h incubation, read-out: DC50 NCI-H226 24 h.

Read-outs that look alike come from different tables or passages of the source.

Sequence of TEAD1 in SK-HEP1 cells (P28347 whole entry): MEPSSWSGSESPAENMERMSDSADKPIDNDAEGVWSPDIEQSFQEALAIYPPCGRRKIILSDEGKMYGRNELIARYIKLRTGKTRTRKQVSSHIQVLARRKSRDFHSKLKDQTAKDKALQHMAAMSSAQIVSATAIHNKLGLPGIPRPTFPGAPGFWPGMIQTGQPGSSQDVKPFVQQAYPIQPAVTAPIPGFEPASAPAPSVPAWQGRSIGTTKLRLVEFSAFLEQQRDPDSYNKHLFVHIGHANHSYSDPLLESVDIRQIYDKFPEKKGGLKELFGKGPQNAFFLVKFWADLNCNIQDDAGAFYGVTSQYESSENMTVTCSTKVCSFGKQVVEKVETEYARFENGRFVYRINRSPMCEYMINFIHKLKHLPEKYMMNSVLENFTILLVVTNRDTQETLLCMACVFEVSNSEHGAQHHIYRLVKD
Sequence of TEAD1 in NCI-H226 cells (P28347 whole entry, canonical isoform): as the sequence (P28347 whole entry) above

As for `Cc1ncsc1-c1ccc(CNC(=O)C2CC(O)CN2C(=O)C(NC(=O)COCCOCCOCCOCCNC(=O)c2ccc3c(c2)c2cn(C)nc2n3-c2ccc(C(F)(F)F)cc2)C(C)(C)C)cc1` (stereo in doubt) [Compound 12, (2S,4R)-1-{(2S)-3,3-dimethyl-2-[14-({2-methyl-8-[4-(trifluoromethyl)phenyl]-2H,8H-pyrazolo[3,4-b]indol-5-yl}formamido)-3,6,9,12-tetraoxatetradecanamido]butanoyl}-4-hydroxy-N-{[4-(4-methyl-1,3-thiazol-5-yl)phenyl]methyl}pyrrolidine-2-carboxamide], the DC50 (usually the midpoint of the concentration-degradation curve) in assay [1] (setting [3]) was in the range of 3 to 9 µM; in assay [2] (setting [4]), 0.1 to 1 µM.

In the case of `CCNC(=O)[C@H](Cc1ccc(F)cc1)NC(=O)[C@@H]1CCCN1C(=O)[C@@H](NC(=O)[C@H](C)NCCOCCOCCOCCNC(=O)c1ccc2c(c1)c1cn(C)nc1n2-c1ccc(C(F)(F)F)cc1)C1CCCCC1` (stereo in doubt) [Compound 69, (13S)—N-[(1S)-1-cyclohexyl-2-[(2S)-2-{[(1S)-1-(ethylcarbamoyl)-2-(4-fluorophenyl)ethyl]carbamoyl}pyrrolidin-1-yl]-2-oxoethyl]-13-methyl-1-({2-methyl-8-[4-(trifluoromethyl)phenyl]-2H,8H-pyrazolo[3,4-b]indol-5-yl}form-amido)-3,6,9-trioxa-12-azatetradecan-14-amide], the DC50 in assay [1] (setting [3]) is 9 to 30 µM; in assay [2] (setting [4]) it was 3 to 9 µM.

Regarding `Cn1cc2c3cc(C(=O)NCCOCCOCCNC(=O)COc4ccc5c(c4)C(=O)N(C4CCC(=O)NC4=O)C5=O)ccc3n(-c3ccc(C(F)(F)F)cc3)c2n1` (stereo not drawn) [Compound 7, 2-{[2-(2,6-dioxopiperidin-3-yl)-1,3-dioxo-2,3-dihydro-1H-isoindol-5-yl]oxy}-N-(2-{2-[2-({2-methyl-8-[4-(trifluoromethyl)phenyl]-2H,8H-pyrazolo[3,4-b]indol-5-yl}formamido)ethoxy]ethoxy}ethyl)acetamide], the DC50 in assay [1] (setting [5]) is 20 µM; in assay [1] (setting [3]), 9 to 30 µM; in assay [2] (24 h incubation, read-out: DC50 SK-HEP1 24 h) it was 2.4 µM; in assay [2] (setting [4]) it was 1 to 3 µM.

As to `Cn1cc2c3cc(C(=O)NCCOCCOCCOCCOCCOCC(=O)Nc4cccc5c4C(=O)N(C4CCC(=O)NC4=O)C5=O)ccc3n(-c3ccc(C(F)(F)F)cc3)c2n1` (stereo not drawn) [Compound 10, N-[2-(2,6-dioxopiperidin-3-yl)-1,3-dioxo-2,3-dihydro-1H-isoindol-4-yl]-17-({2-methyl-8-[4-(trifluoromethyl)phenyl]-2H,8H-pyrazolo[3,4-b]indol-5-yl}formamido)-3,6,9,12,15-pentaoxaheptadecanamide], the DC50 in assay [1] (setting [5]) was 20 µM; in assay [1] (setting [3]) it was 1 to 3 µM.

As to `Cn1cc2c3cc(C(=O)NCCOCCOCCNC(=O)CCCCCCNc4cccc5c4CN(C4CCC(=O)NC4=O)C5=O)ccc3n(-c3ccc(C(F)(F)F)cc3)c2n1` (stereo not drawn) [Compound 15, 7-{[2-(2,6-dioxopiperidin-3-yl)-1-oxo-2,3-dihydro-1H-isoindol-4-yl]amino}-N-(2-{2-[2-({2-methyl-8-[4-(trifluoromethyl)phenyl]-2H,8H-pyrazolo[3,4-b]indol-5-yl}formamido)ethoxy]ethoxy}ethyl) heptanamide], the DC50 in assay [1] (setting [3]) was in the range of 1 to 3 µM.

`Cc1ncsc1-c1ccc(CNC(=O)[C@@H]2C[C@@H](O)CN2C(=O)[C@@H](NC(=O)CCCCCCOCCNC(=O)c2ccc3c(c2)c2cn(C)nc2n3-c2ccc(C(F)(F)F)cc2)C(C)(C)C)cc1` [Compound 77, (2S,4R)-1-[(2S)-3,3-dimethyl-2-{7-[2-({2-methyl-8-[4-(trifluoromethyl)-phenyl]-2H,8H-pyrazolo[3,4-b]indol-5-yl}formamido)ethoxy]heptanamido}-butanoyl]-4-hydroxy-N-{[4-(4-methyl-1,3-thiazol-5-yl)phenyl]methyl}-pyrrolidine-2-carboxamide]: in assay [2] (setting [4]), the DC50 fell in the range of 0.1 to 1 µM.
